# In patent US9617286B2, “Fungicide N-[(trisubstitutedsilyl)methyl]-carboxamide derivatives” (BAYER INTELLECTUAL PROPERTY GMBH, priority 2011, dated 2017):
# System: Pyrenophora teres
# Assay: In vivo preventive test on Pyrenophora teres (barley)
# Details: preventive spray (DMF/alkylaryl polyglycol ether), 500 ppm of active ingredient, evaluated 7-9 days after inoculation
# Protocol: Solvent: 49 parts by weight of N,N-dimethylformamide Emulsifier: 1 part by weight of alkylaryl polyglycol ether To produce a suitable preparation of active compound, 1 part by weight of active compound is mixed with the stated amounts of solvent and emulsifier, and the concentrate is diluted with water to the desired concentration. To test for preventive activity, young plants are sprayed with the preparation of active compound at the stated rate of application. One day after this treatment, the plants are inoculated with an aqueous spore suspension of Pyrenophora teres. The plants remain for 48 hours in an incubation cabinet at 22° C. and a relative atmospheric humidity of 100%. Then the plants are placed in a greenhouse at a temperature of approximately 20° C. and a relative atmospheric humidity of approximately 80%.
row,Structure (SMILES),Efficacy [%]
1,C[Si](C)(CN(C(=O)c1cccnc1C(F)(F)F)C1CC1)c1cccc(Cl)c1 [Example 33],80
2,C[Si](C)(CN(C(=O)c1nccnc1C(F)(F)F)C1CC1)c1ccc(Cl)cc1Cl [Example 58],100
3,C[Si](C)(CN(C(=O)c1cccnc1C(F)F)C1CC1)c1cc(Cl)cc(Cl)c1 [Example 68],80
4,C[Si](C)(CN(C(=O)c1cccnc1C(F)(F)F)C1CC1)c1ccc2ccccc2c1 [Example 78],95
5,C[Si](C)(CN(C(=O)c1nccnc1C(F)(F)F)C1CC1)c1cccs1 [Example 82],95
6,C[Si](C)(Cc1ccc(Cl)cc1Cl)CN(C(=O)c1nccnc1C(F)(F)F)C1CC1 [Example 111],95

# System: not listed separately
# Assay: log P by HPLC on reversed-phase column (C 18), EEC Directive 79/831 Annex V.A8
# Assay type: physicochemical
# Details: 40° C., 0.1% aqueous formic acid and acetonitrile, linear gradient 10% to 90% acetonitrile
# Protocol: In table 1, the log P values were determined in accordance with EEC Directive 79/831 Annex V.A8 by HPLC (High Performance Liquid Chromatography) on a reversed-phase column (C 18), using the method described below:
# Temperature: 40° C.; Mobile phases: 0.1% aqueous formic acid and acetonitrile; linear gradient from 10% acetonitrile to 90% acetonitrile.
# Calibration was carried out using unbranched alkan-2-ones (comprising 3 to 16 carbon atoms) with known log P values (determination of the log P values by the retention times using linear interpolation between two successive alkanones). lambda-max-values were determined using UV-spectra from 200 nm to 400 nm and the peak values of the chromatographic signals.
row,logP,Structure (SMILES)
1,3.50,C[Si](C)(CN(C(=O)c1cccnc1Cl)C1CC1)c1ccccc1 [Example 4]
2,3.13,CC1=C(C(=O)NC[Si](C)(C)c2ccccc2)SCCO1 [Example 6]
3,4.16,CCc1ccccc1[Si](C)(C)CN(C(=O)c1cccnc1Cl)C1CC1 [Example 18]
4,4.06,CCc1ccccc1[Si](C)(C)CN(C(=O)c1cccnc1C(F)F)C1CC1 [Example 19]
5,3.94,C[Si](C)(CN(C(=O)c1cccnc1Cl)C1CC1)c1ccccc1Cl [Example 23]
6,5.14,C[Si](C)(CN(C(=O)c1ccccc1I)C1CC1)c1ccccc1Cl [Example 24]
7,5.03,C[Si](C)(CN(C(=O)c1ccccc1C(F)(F)F)C1CC1)c1ccccc1Cl [Example 25]
8,4.31,C[Si](C)(CN(C(=O)c1cccnc1C(F)(F)F)C1CC1)c1ccccc1Cl [Example 27]
9,5.14,C[Si](C)(CN(C(=O)c1ccccc1I)C1CC1)c1cccc(Cl)c1 [Example 30]
10,5.03,C[Si](C)(CN(C(=O)c1ccccc1C(F)(F)F)C1CC1)c1cccc(Cl)c1 [Example 31]
11,4.34,C[Si](C)(CN(C(=O)c1cccnc1C(F)(F)F)C1CC1)c1cccc(Cl)c1 [Example 33]
12,3.96,C[Si](C)(CN(C(=O)c1cccnc1Cl)C1CC1)c1cccc(Cl)c1 [Example 35]
13,4.71,CC[Si](C)(CN(C(=O)c1cccnc1C(F)(F)F)C1CC1)c1ccccc1Cl (stereo not shown) [Example 37]
14,4.29,CC1=C(C(=O)N(C[Si](C)(C)c2ccccc2Cl)C2CC2)SCCO1 [Example 43]
15,4.04,C[Si](C)(CN(C(=O)c1cccnc1Cl)C1CC1)c1ccccc1C(F)(F)F [Example 53]
16,3.64,C[Si](C)(CNC(=O)c1cccnc1C(F)F)c1ccc(Cl)cc1Cl [Example 57]
17,5.25,C[Si](C)(CN(C(=O)c1nccnc1C(F)(F)F)C1CC1)c1ccc(Cl)cc1Cl [Example 58]
18,4.64,C[Si](C)(CN(C(=O)c1cccnc1Cl)C1CC1)c1ccc(Cl)cc1Cl [Example 59]
19,5.88,C[Si](C)(CN(C(=O)c1ccccc1I)C1CC1)c1ccc(Cl)cc1Cl [Example 60]
20,5.72,C[Si](C)(CN(C(=O)c1ccccc1C(F)(F)F)C1CC1)c1ccc(Cl)cc1Cl [Example 61]
21,4.95,C[Si](C)(CN(C(=O)c1nccnc1C(F)(F)F)C1CC1)c1cc(Cl)cc(Cl)c1 [Example 64]
22,4.61,C[Si](C)(CN(C(=O)c1cccnc1Cl)C1CC1)c1cc(Cl)cc(Cl)c1 [Example 65]
23,5.65,C[Si](C)(CN(C(=O)c1ccccc1C(F)(F)F)C1CC1)c1cc(Cl)cc(Cl)c1 [Example 66]
24,4.95,C[Si](C)(CN(C(=O)c1cccnc1C(F)(F)F)C1CC1)c1cc(Cl)cc(Cl)c1 [Example 67]

row,logP,Structure (SMILES)
1,4.49,C[Si](C)(CN(C(=O)c1cccnc1C(F)F)C1CC1)c1cc(Cl)cc(Cl)c1 [Example 68]
2,4.15,C[Si](C)(CN(C(=O)c1cccnc1Cl)C1CC1)c1cccc2ccccc12 [Example 69]
3,5.31,C[Si](C)(CN(C(=O)c1ccccc1I)C1CC1)c1cccc2ccccc12 [Example 70]
4,5.19,C[Si](C)(CN(C(=O)c1ccccc1C(F)(F)F)C1CC1)c1cccc2ccccc12 [Example 71]
5,4.51,C[Si](C)(CN(C(=O)c1cccnc1C(F)(F)F)C1CC1)c1cccc2ccccc12 [Example 73]
6,4.23,C[Si](C)(CN(C(=O)c1cccnc1Cl)C1CC1)c1ccc2ccccc2c1 [Example 75]
7,5.36,C[Si](C)(CN(C(=O)c1ccccc1I)C1CC1)c1ccc2ccccc2c1 [Example 76]
8,4.56,C[Si](C)(CN(C(=O)c1cccnc1C(F)(F)F)C1CC1)c1ccc2ccccc2c1 [Example 78]
9,5.25,C[Si](C)(CN(C(=O)c1ccccc1C(F)(F)F)C1CC1)c1ccc2ccccc2c1 [Example 80]
10,3.80,C[Si](C)(CN(C(=O)c1cccnc1C(F)(F)F)C1CC1)c1cccs1 [Example 81]
11,4.01,C[Si](C)(CN(C(=O)c1nccnc1C(F)(F)F)C1CC1)c1cccs1 [Example 82]
12,3.39,C[Si](C)(CN(C(=O)c1cccnc1Cl)C1CC1)c1cccs1 [Example 83]
13,4.59,C[Si](C)(CN(C(=O)c1ccccc1I)C1CC1)c1cccs1 [Example 84]
14,4.51,C[Si](C)(CN(C(=O)c1ccccc1C(F)(F)F)C1CC1)c1cccs1 [Example 85]
15,3.33,C[Si](C)(CN(C(=O)c1cccnc1Cl)C1CC1)c1ccsc1 [Example 88]
16,4.49,C[Si](C)(CN(C(=O)c1ccccc1I)C1CC1)c1ccsc1 [Example 89]
17,4.44,C[Si](C)(CN(C(=O)c1ccccc1C(F)(F)F)C1CC1)c1ccsc1 [Example 90]
18,3.87,C[Si](C)(Cc1ccccc1)CN(C(=O)c1cccnc1Cl)C1CC1 [Example 94]
19,5.00,C[Si](C)(Cc1ccccc1)CN(C(=O)c1ccccc1I)C1CC1 [Example 95]
20,4.90,C[Si](C)(Cc1ccccc1)CN(C(=O)c1ccccc1C(F)(F)F)C1CC1 [Example 96]
21,4.19,C[Si](C)(Cc1ccccc1)CN(C(=O)c1cccnc1C(F)(F)F)C1CC1 [Example 97]
22,4.11,C[Si](C)(Cc1ccccc1Cl)CN(C(=O)c1cccnc1C(F)F)C1CC1 [Example 98]
23,4.25,C[Si](C)(Cc1ccccc1Cl)CN(C(=O)c1cccnc1Cl)C1CC1 [Example 100]
24,5.45,C[Si](C)(Cc1ccccc1Cl)CN(C(=O)c1ccccc1I)C1CC1 [Example 101]

row,logP,Structure (SMILES)
1,5.31,C[Si](C)(Cc1ccccc1Cl)CN(C(=O)c1ccccc1C(F)(F)F)C1CC1 [Example 102]
2,4.59,C[Si](C)(Cc1ccccc1Cl)CN(C(=O)c1cccnc1C(F)(F)F)C1CC1 [Example 103]
3,4.30,C[Si](C)(Cc1cccc(Cl)c1)CN(C(=O)c1cccnc1Cl)C1CC1 [Example 106]
4,5.45,C[Si](C)(Cc1cccc(Cl)c1)CN(C(=O)c1ccccc1I)C1CC1 [Example 107]
5,5.31,C[Si](C)(Cc1cccc(Cl)c1)CN(C(=O)c1ccccc1C(F)(F)F)C1CC1 [Example 108]
6,4.61,C[Si](C)(Cc1cccc(Cl)c1)CN(C(=O)c1cccnc1C(F)(F)F)C1CC1 [Example 109]
7,5.45,C[Si](C)(Cc1ccc(Cl)cc1Cl)CN(C(=O)c1nccnc1C(F)(F)F)C1CC1 [Example 111]
8,4.90,C[Si](C)(Cc1ccc(Cl)cc1Cl)CN(C(=O)c1cccnc1Cl)C1CC1 [Example 112]
9,6.14,C[Si](C)(Cc1ccc(Cl)cc1Cl)CN(C(=O)c1ccccc1I)C1CC1 [Example 113]
10,5.94,C[Si](C)(Cc1ccc(Cl)cc1Cl)CN(C(=O)c1ccccc1C(F)(F)F)C1CC1 [Example 114]
11,5.22,C[Si](C)(Cc1ccc(Cl)cc1Cl)CN(C(=O)c1cccnc1C(F)(F)F)C1CC1 [Example 115]
12,5.45,C[Si](C)(Cc1cc(Cl)cc(Cl)c1)CN(C(=O)c1nccnc1C(F)(F)F)C1CC1 [Example 116]
13,4.92,C[Si](C)(Cc1cc(Cl)cc(Cl)c1)CN(C(=O)c1cccnc1Cl)C1CC1 [Example 118]
14,6.14,C[Si](C)(Cc1cc(Cl)cc(Cl)c1)CN(C(=O)c1ccccc1I)C1CC1 [Example 119]
15,5.94,C[Si](C)(Cc1cc(Cl)cc(Cl)c1)CN(C(=O)c1ccccc1C(F)(F)F)C1CC1 [Example 120]
16,5.22,C[Si](C)(Cc1cc(Cl)cc(Cl)c1)CN(C(=O)c1cccnc1C(F)(F)F)C1CC1 [Example 121]
17,3.92,CN(C[Si](C)(C)c1cc(Cl)cc(Cl)c1)C(=O)c1cccnc1C(F)F [Example 122]
18,3.83,C[Si](C)(CNC(=S)c1cccnc1C(F)F)c1ccccc1Cl [Example 123]
19,5.13,C[Si](C)(CN(C(=S)c1cccnc1C(F)F)C1CC1)c1ccc(Cl)cc1Cl [Example 124]
20,4.72,C[Si](C)(CN(C(=S)c1cccnc1C(F)F)C1CC1)c1ccc2ccccc2c1 [Example 125]
21,5.35,C[Si](C)(CN(C(=S)c1nccnc1C(F)(F)F)C1CC1)c1ccc2ccccc2c1 [Example 126]
22,4.76,C[Si](C)(Cc1ccccc1Cl)CN(C(=S)c1cccnc1C(F)F)C1CC1 [Example 127]
